How the values were obtained:
CAL-51 cells = experiment: CAL-51 Cell Proliferation Assay; assay type: cell-based; conditions: for EC50: Homo sapiens, 120 hours incubation, 10-point dose response, 4-fold dilutions starting at 10 μM, Cell-Titer-Glo, read-out: CAL-51 Prolif EC50; for CAL-51 Prolif Ymin: minimal percent of DMSO control observed in the concentrations tested (Ymin-obs), 120 hours
Outline: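 Cells seeded at 350/well in RPMI complete medium onto 10-point, 4-fold compound dilutions from 10 μM (0.1% DMSO), in duplicate, and grown 120 h at 37 °C. CellTiter-Glo luminescence, blank-subtracted and normalised to DMSO, was fitted with a four-parameter logistic to give EC50; Ymin-obs is the lowest observed percent of DMSO control.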

FAK = molecular target: T1, FAK (Homo sapiens, UniProt Q05397); experiment: FAK-HiBiT Degradation Assay; assay type: cell-based; conditions: for DC50: JHH-4-FAK-HiBiT clone d01 cells, two hours incubation, 10-point dose response, 3-fold dilution starting at 1 μM, Nano-Glo HiBiT luminescence, read-out: FAK HiBiT EC50; for FAK HiBiT Ymin: lower limit of the four parameter fit (value A), Ymax derived using DMSO control, JHH-4-FAK-HiBiT cells, two hours
T1 construct: homozygous knock-in of a HiBiT tag (Promega Corporation, Madison, WI) to the C-terminus of the FAK gene in its natural genomic locus; endogenous in cells; host or cells: JHH-4-FAK-HiBiT clone d01 (CRISPR-Cas9 knock-in at the endogenous locus)
Outline: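 JHH-4 cells with homozygous CRISPR knock-in of C-terminal HiBiT on endogenous FAK, treated 2 h at 37 °C with compounds in 10-point 3-fold series from 1 μM. HiBiT lytic luminescence read; EC50 from four-parameter logistic fit, Ymax set by DMSO control, Ymin as lower fit limit.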

T1 sequence (Q05397 whole entry): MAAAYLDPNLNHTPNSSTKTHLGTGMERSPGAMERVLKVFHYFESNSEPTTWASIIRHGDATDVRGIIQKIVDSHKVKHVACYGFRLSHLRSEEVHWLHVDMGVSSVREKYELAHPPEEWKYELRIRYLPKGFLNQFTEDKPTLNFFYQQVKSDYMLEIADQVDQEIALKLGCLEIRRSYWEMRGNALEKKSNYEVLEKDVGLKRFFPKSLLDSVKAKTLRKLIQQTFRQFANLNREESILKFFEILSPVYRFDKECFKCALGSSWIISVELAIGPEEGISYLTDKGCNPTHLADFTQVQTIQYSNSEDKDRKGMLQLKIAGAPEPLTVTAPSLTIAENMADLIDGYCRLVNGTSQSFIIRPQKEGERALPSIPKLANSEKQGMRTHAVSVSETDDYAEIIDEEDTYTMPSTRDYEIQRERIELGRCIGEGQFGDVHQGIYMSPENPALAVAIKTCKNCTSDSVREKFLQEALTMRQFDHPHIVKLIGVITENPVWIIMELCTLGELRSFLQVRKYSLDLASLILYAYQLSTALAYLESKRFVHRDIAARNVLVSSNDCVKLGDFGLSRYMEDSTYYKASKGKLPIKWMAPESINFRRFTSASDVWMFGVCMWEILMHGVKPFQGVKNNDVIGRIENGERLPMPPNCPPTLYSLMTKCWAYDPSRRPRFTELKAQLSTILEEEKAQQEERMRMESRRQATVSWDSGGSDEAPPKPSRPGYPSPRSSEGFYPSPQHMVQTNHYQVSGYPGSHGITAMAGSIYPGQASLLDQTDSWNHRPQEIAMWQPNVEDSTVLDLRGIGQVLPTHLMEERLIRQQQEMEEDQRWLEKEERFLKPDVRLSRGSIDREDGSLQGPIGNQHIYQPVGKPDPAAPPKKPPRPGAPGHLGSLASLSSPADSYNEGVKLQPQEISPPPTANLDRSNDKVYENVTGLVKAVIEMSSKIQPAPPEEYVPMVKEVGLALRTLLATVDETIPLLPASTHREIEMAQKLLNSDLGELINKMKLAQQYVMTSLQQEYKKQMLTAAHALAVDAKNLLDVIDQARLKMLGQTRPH

DC50 (FAK) [nM] | FAK HiBiT Ymin (FAK) | SMILES | EC50 (CAL-51 cells) [nM] | CAL-51 Prolif Ymin (CAL-51 cells)
37.9 | 17.24 | O=C1CC[C@H](N2Cc3cc(Cn4ncc5c(-c6ncc(C(F)(F)F)cc6Cl)cc(N6CCC(O)C6)nc54)ccc3C2=O)C(=O)N1 (stereo in doubt) [Example 106, (3S)-3-[5-({4-[3-chloro-5-(trifluoromethyl)pyridin-2-yl]-6-[(3R)-3-hydroxypyrrolidin-1-yl]-1H-pyrazolo[3,4-b]pyridin-1-yl}methyl)-1-oxo-2,3-dihydro-1H-isoindol-2-yl]piperidine-2,6-dione] | 54.6 | 53.56
0.97 | 10.02 | O=C1CCC(N2Cc3cc(Cn4ncc5c(-c6ncc(Cl)cc6Cl)cc(N6CC(F)C6)nc54)ccc3C2=O)C(=O)N1 (centres unmarked) [Example 35, 3-(5-{[4-(3,5-dichloropyridin-2-yl)-6-(3-fluoroazetidin-1-yl)-1H-pyrazolo[3,4-b]pyridin-1-yl]methyl}-1-oxo-2,3-dihydro-1H-isoindol-2-yl)piperidine-2,6-dione] | 0.59 | 21.28
0.5 | 8.05 | O=C1CC[C@H](N2Cc3cc(Cn4ncc5c(-c6ncc(C(F)(F)F)cc6Cl)cc(N6CC(F)C6)nc54)ccc3C2=O)C(=O)N1 [Example 6, (3S)-3-[5-({4-[3-chloro-5-(trifluoromethyl)pyridin-2-yl]-6-(3-fluoroazetidin-1-yl)-1H-pyrazolo[3,4-b]pyridin-1-yl}methyl)-1-oxo-2,3-dihydro-1H-isoindol-2-yl]piperidine-2,6-dione] | 0.4 | 31.07
24.4 | 32.32 | O=C1CCC(N2Cc3cc(Cn4ncc5c(-c6ncc(C(F)(F)F)cc6Cl)cc(NC6CC6)nc54)ccc3C2=O)C(=O)N1 (centres unmarked) [Example 98, 3-[5-({4-[3-chloro-5-(trifluoromethyl)pyridin-2-yl]-6-(cyclopropyl-amino)-1H-pyrazolo[3,4-b]pyridin-1-yl}methyl)-1-oxo-2,3-dihydro-1H-isoindol-2-yl]piperidine-2,6-dione] | 3.66 | 39.93
84.9 | 40.36 | CC(C)(O)c1cnc(-c2cc(N3CC(F)C3)nc3c2cnn3Cc2ccc3c(c2)CN([C@H]2CCC(=O)NC2=O)C3=O)c(Cl)c1 [Example 119, (3S)-3-[5-({4-[3-chloro-5-(2-hydroxypropan-2-yl)pyridin-2-yl]-6-(3-fluoroazetidin-1-yl)-1H-pyrazolo[3,4-b]pyridin-1-yl}methyl)-1-oxo-2,3-dihydro-1H-isoindol-2-yl]piperidine-2,6-dione] | 27 | 59.05
1.15 | 6.87 | O=C1CCC(N2Cc3c(ccc(Cn4ncc5c(-c6ncc(C(F)(F)F)cc6Cl)cc(N6CC(F)C6)nc54)c3F)C2=O)C(=O)N1 (centres unmarked) [Example 40, 3-[5-({4-[3-chloro-5-(trifluoromethyl)pyridin-2-yl]-6-(3-fluoroazetidin-1-yl)-1H-pyrazolo[3,4-b]pyridin-1-yl}methyl)-4-fluoro-1-oxo-2,3-dihydro-1H-isoindol-2-yl]piperidine-2,6-dione] | 11.2 | 36.00

Further lines, the compound ahead of its results:

SMILES | DC50 (FAK) [nM] | FAK HiBiT Ymin (FAK) | EC50 (CAL-51 cells) [nM] | CAL-51 Prolif Ymin (CAL-51 cells)
O=C1CCC(N2Cc3cc(Cn4cnc5c(-c6ccc(F)cc6F)cc(N6CC(F)C6)nc54)ccc3C2=O)C(=O)N1 (centres unmarked) [Example 22, 3-(5-((7-(2,4-difluorophenyl)-5-(3-fluoroazetidin-1-yl)-3H-imidazo[4,5-b]pyridin-3-yl)methyl)-1-oxoisoindolin-2-yl)piperidine-2,6-dione] | 0.68 | 10.53 | 0.39 | 22.20
O=C1CCC(N2Cc3cc(Cn4ccc5c(-c6ncc(F)cc6Cl)cc(N6CC(F)C6)nc54)ccc3C2=O)C(=O)N1 (centres unmarked) [Example 17, 3-(5-((4-(3-chloro-5-fluoropyridin-2-yl)-6-(3-fluoroazetidin-1-yl)-1H-pyrrolo[2,3-b]pyridin-1-yl)methyl)-1-oxoisoindolin-2-yl)piperidine-2,6-dione] | 3.36 | 7.42 | 3.46 | 28.46
COc1cnc(-c2cc(N3CC(F)C3)nc3c2cnn3Cc2ccc3c(c2)CN(C2CCC(=O)NC2=O)C3=O)c(C)c1 (centres unmarked) [Example 97, 3-(5-{[6-(3-fluoroazetidin-1-yl)-4-(5-methoxy-3-methylpyridin-2-yl)-1H-pyrazolo[3,4-b]pyridin-1-yl]methyl}-1-oxo-2,3-dihydro-1H-isoindol-2-yl)piperidine-2,6-dione] | 22.9 | 12.95 | 14.4 | 38.61
O=C1CCC(N2Cc3cc(Cn4ncc5c(-c6ncc(F)cc6Cl)cc(N6CC[C@@H](O)C6)nc54)ccc3C2=O)C(=O)N1 (stereo partly drawn) [Example 114, 3-(5-{[4-(3-chloro-5-fluoropyridin-2-yl)-6-[(3R)-3-hydroxypyrrolidin-1-yl]-1H-pyrazolo[3,4-b]pyridin-1-yl]methyl}-1-oxo-2,3-dihydro-1H-isoindol-2-yl)piperidine-2,6-dione] | 55.7 | 14.15 | 35 | 40.82
Cc1cc(C(F)(F)F)cnc1-c1cc(N2CC[C@H](O)C2)nc2c1cnn2Cc1ccc2c(c1)CN([C@H]1CCC(=O)NC1=O)C2=O [Example 110, (3S)-3-[5-({6-[(3S)-3-hydroxypyrrolidin-1-yl]-4-[3-methyl-5-(trifluoromethyl)pyridin-2-yl]-1H-pyrazolo[3,4-b]pyridin-1-yl}methyl)-1-oxo-2,3-dihydro-1H-isoindol-2-yl]piperidine-2,6-dione] | 45.3 | 14.00 | 186 | 10.20
O=C1CC[C@H](N2Cc3cc(Cn4ncc5c(-c6ccc(F)cc6F)cc(N6CC(F)C6)nc54)ccc3C2=O)C(=O)N1 [Example 30, (3S)-3-(5-{[4-(2,4-difluorophenyl)-6-(3-fluoroazetidin-1-yl)-1H-pyrazolo[3,4-b]pyridin-1-yl]methyl}-1-oxo-2,3-dihydro-1H-isoindol-2-yl)piperidine-2,6-dione] | 0.72 | 7.40 | 0.77 | 26.67
CN1CCC(Nc2cc(-c3ncc(C(F)(F)F)cc3Cl)c3cnn(Cc4ccc5c(c4)CN(C4CCC(=O)NC4=O)C5=O)c3n2)C1 (centres unmarked) [Example 128, 3-[5-({4-[3-chloro-5-(trifluoromethyl)pyridin-2-yl]-6-[(1-methylpyrrolidin-3-yl)amino]-1H-pyrazolo[3,4-b]pyridin-1-yl}methyl)-1-oxo-2,3-dihydro-1H-isoindol-2-yl]piperidine-2,6-dione] | 292 | 58.00 | 191 | 83.49
Cc1cnc(-c2cc(N3CC(F)C3)nc3c2cnn3Cc2ccc3c(c2)CN(C2CCC(=O)NC2=O)C3=O)c(C)c1 (centres unmarked) [Example 85, 3-(5-{[4-(3,5-dimethylpyridin-2-yl)-6-(3-fluoroazetidin-1-yl)-1H-pyrazolo[3,4-b]pyridin-1-yl]methyl}-1-oxo-2,3-dihydro-1H-isoindol-2-yl)piperidine-2,6-dione] | 11.1 | 11.71 | 6.82 | 35.10

— US20260078119A1, “DEGRADER COMPOUNDS AND USES THEREOF” (Bristol-Myers Squibb Company, priority 2024, published 2026)
